{"source": "patent US20160144021A1", "about": "“Vaccine Composition And Method Of Use” (MEDIMMUNE, LLC, priority 2013, published 2016)", "assay_type_in_all_cases": "in vivo", "key": {"RSV sF protein": {"system": "RSV sF protein", "assay": "IFNγ ELISPOT of splenocytes, naive Sprague Dawley rats", "details": "Day 46, 4 days post RSV challenge", "experimental": "Systemic cellular immune responses to vaccination were evaluated in all available animals at Day 46, 4 days post RSV challenge. For each of the groups, individual splenocyte samples were prepared. T-cell readouts were assessed by ELISPOT counts of IFNγ-secreting cells following a 36-48 hour restimulation with RSV sF. Significance was calculated using GraphPad Prism 1-way ANOVA with either Tukey or Bonferroni post test with a significance cutoff of p<0.05."}, "RSV A2 [1]": {"system": "RSV A2", "assay": "GFP-tagged RSV A2 micro-neutralization of sera, naive BALB/c mice", "details": "day 28, prior to challenge, 0.3 μg RSV sF days 0 and 14"}, "RSV A2 [2]": {"system": "RSV A2", "assay": "RSV A2-GFP microneutralization of sera, 1x RSV seropositive BALB/c mice", "experimental": "Naïve female BALB/c mice were divided into designated vaccine cohorts of 8-9 mice each and dosed at Day 0. […] Successful seroconversion was confirmed by F-specific ELISA endpoint titers on Day 0. Groups of 9 mice were inoculated intramuscularly (IM) with the vaccine formulations at Day 0. 3 mice per group were evaluated for cellular immune responses at 10 days post […], while the remaining 5-6 animals per group were followed for serum antibody responses through Day 73.\n(§1) Serology readouts were made at Days 0, 14, 28, 42, 56, and 73 for each group. Animals were lightly anesthetized with isoflurane and bled intraorbitally. Serum was separated and stored at −20° C. and thawed for testing. Total anti-F IgG were measured at each timepoint, with anti-F IgG1 and anti-F IgG2a ELISA endpoint dilution titers measured at Day 0 and Day 42. RSV neutralization titer was determined by a RSV A2-GFP microneutralization assay. The polyclonal nature of the anti-F IgG response was evaluated on Day 42 by competition ELISA with site-specific monoclonal antibodies to RSV-F. Anti-F IgA endpoint dilution titers were measured at Day 14 for each group."}, "RSV A2 [3]": {"system": "RSV A2", "assay": "RSV A2-GFP neutralizing Ab titers of sera, cynomolgus monkeys", "from_the_text": "At Day 169, 5 months post vaccination, the booster vaccination was given."}, "[4]": {"assay": "Lung histopathology after RSV challenge, naive BALB/c mice", "details": "H&E lung sections day 4 post RSV challenge", "experimental": "Lung sections (5 micron) were prepared using a microtome from paraffin-embedded formalin-fixed lung lobes harvested at day 4 post RSV challenge. Sections stained with hematoxylin and eosin were digitally scanned and examined by a licensed pathologist. Lung sections were evaluated for pulmonary lesion characteristics such as presence of bronchiolar hyperplasia, alveolitis, eosinophilic infiltrate and infiltration of the peribronchiolar/perivascular spaces."}, "RSV A2 [5]": {"system": "RSV A2", "assay": "Lung and nose viral titers by plaque assay after RSV challenge, naive cotton rats", "details": "0.3 μg RSV sF IM, 4 days post challenge"}, "RSV sF [6]": {"system": "RSV sF", "assay": "Serum RSV F-specific IgG, IgG1, IgG2a ELISA, highly seropositive BALB/c mice", "details": "day 84", "experimental": "One hundred three female BALB/c mice (Charles River), ages 6-8 weeks old, were divided into 13 groups. Group 1 had 7 mice and groups 2 through 13 had 8 mice. Following anaesthetization groups 1 through 12 were dosed with 1×10^6 plaque forming units (PFU) in 100 μL of live RSV via an intranasal (IN) route on Day 0 and Day 35. Group 13 was not exposed to RSV. On Day 56, groups 1 through 11 were immunized with placebo (PBS) or vaccine article via an intramuscular (IM) route following anesthesia with isoflurane. The vaccine articles were formulated in a total of 100 μL with 50 μL given in each hind limb. Group 12 was anesthetized with isoflurane and immunized with 1×10^6 PFU in 100 μL of live RSV via an IN route. […] Sera were obtained from retro orbital blood collection at study days 0, 28, 56 70 and 84, separated from whole blood and stored at −20° C. until evaluated. Spleens from 4 animals in each group were harvested for T cell assays on Day 67, 11 days post immunization, or at day 88, 4 days post challenge. Lung cytokines quantified at 4 days after challenge in individual lung homogenates by luminex assay (Milipore)."}, "[7]": {"system": "IL-5, IL-13, IFNγ, IL-17, eotaxin", "assay": "Cytokines in lung homogenates after RSV challenge, naive BALB/c mice", "set-up": "pulmonary eotaxin levels (mean): unit not given here", "experimental": "Lung homogenates were clarified by centrifugation prior to use. […] F-specific splenic cytokine production was determined by subtracting media alone values from F stimulated values."}, "[8]": {"system": "RSV F peptide pool of overlapping 15-mers", "assay": "F-specific IFNγ ELISPOT of PBMC, cynomolgus monkeys", "experimental": "To determine whether immunization with sF formulated with GLA-SE enhanced an F-specific T cell response, F-specific IFNγ T cell responses were measured by ELISPOT following restimulation with a peptide pool of overlapping 15-mers derived from the RSV F protein sequence. […] While the number of T cells in the sF+GLA-SE group decreased over time, one animal still met the definition of a positive responder out to day 169. At Day 169, 5 months post vaccination, a booster vaccination was given. […] In comparison, 0 of 4 monkeys in the sF alone group responded with an increase in IFNγ secreting F-specific T cells (mean 5 SFC/million)."}, "RSV sF [9]": {"system": "RSV sF", "assay": "Serum F-specific IgA ELISA, 1x RSV seropositive BALB/c mice", "details": "Day 14; RSV sF at 10 μg, RSV sF+GLA-SE at any of the 3 doses", "experimental": "as §1"}, "RSV A2 [10]": {"system": "RSV A2", "assay": "Lung and nose RSV titers after challenge, vaccinated Sprague Dawley rats", "details": "10 or 100 μg RSV sF, 4 days post challenge", "experimental": "In a subsequent study, the immunogenicity and protection following a prime-boost regimen of RSV-SF was evaluated. 40 naive female Sprague Dawley rats were divided into designated vaccine cohorts of 5-6 animals per cohort. Briefly, test groups were given RSV sF (10 μg or 100 μg per animal) without adjuvant or RSV sF (10 μg or 100 μg per animal) with GLA-SE (2.5 μg in 2% SE). Negative control groups were dosed with placebo (PBS buffer) or adjuvant GLA-SE (2.5 μg/2%) without RSV sF. […] Groups 1-6 were inoculated IM with 500 μL of designated vaccine article on Day 0 and Day 22, while Group 7 was inoculated IN with 200 μL of RSV A2 virus on day 0 only. […] Rats were euthanized at 4 days post challenge on Day 46, the day of peak viral replication determined from Study 1. Lungs (excluding 1 lobe which was formalin-fixed) and noses were homogenized and quantified for viral titers."}, "[11]": {"details": "lung homogenates 4 days post RSV challenge"}}}
{"substance": "RSV sF: RSV soluble F protein, amino acids 1-524 of the RSV A2 F sequence lacking the transmembrane domain, given without adjuvant", "values": [{"measurement": "F-specific IFNγ ELISPOT responses", "setting": "RSV sF protein; 10 μg RSV sF", "value": 64.00, "unit": "SFU/million cells"}, {"measurement": "F-specific IFNγ ELISPOT responses", "setting": "RSV sF protein; 100 μg RSV sF", "value": 87.78, "unit": "SFU/million cells"}, {"measurement": "serum RSV neutralizing titers", "setting": "RSV A2 [1]", "value": 4.1, "unit": "log2"}, {"measurement": "mean RSV neutralizing titers", "setting": "RSV A2 [2]; Day 14, dose 0.4 μg RSV sF assumed from order", "value": 8.32, "unit": "log2"}, {"measurement": "mean RSV neutralizing titers", "setting": "RSV A2 [2]; Day 14, dose 10 μg RSV sF assumed from order", "value": 8.66, "unit": "log2"}, {"measurement": "mean RSV neutralizing titers", "setting": "RSV A2 [2]; Day 14, second value, dose 2 μg RSV sF assumed from order", "value": 7.82, "unit": "log2"}, {"measurement": "animals with 4-fold boost in neutralizing titers from Day −7 levels", "setting": "RSV A2 [3]; Day 42", "value": "1/4"}, {"measurement": "geometric mean RSV neutralizing Ab titer", "setting": "RSV A2 [3]; Day 42", "value": "3.52±1.14", "unit": "log 2"}, {"measurement": "RSV neutralizing Ab titers", "setting": "RSV A2 [3]; Day 169", "value": 2.97, "unit": "log 2"}, {"measurement": "geomean neutralizing Ab titers", "setting": "RSV A2 [3]; Day 183, 14 days following the third immunization", "value": "4.46±1.79", "unit": "log 2"}, {"measurement": "pulmonary inflammation / lesion scores", "setting": "[4]", "value": "increased pulmonary lesion scores"}, {"measurement": "mean RSV titer in the lungs", "setting": "RSV A2 [5]", "value": 5.4, "unit": "log10 pfu/gram"}, {"measurement": "mean RSV titer in the nose", "setting": "RSV A2 [5]", "value": 4.9, "unit": "log10 pfu/gram"}, {"measurement": "Th bias from RSV sF-specific IgG1 and IgG2a serum titers", "setting": "RSV sF [6]", "value": "maintained the Th1 bias"}, {"measurement": "mean IFNγ to IL-5 ratio in lung homogenates", "setting": "[7]; 4 days post RSV challenge, ratio >1.0 = more Th1-type", "value": 0.3}, {"measurement": "IL-5 and IL-13 in the lungs", "setting": "[7]; [11]", "value": "detected"}, {"measurement": "pulmonary eotaxin levels (mean)", "setting": "[7]; [11]", "value": 911}, {"measurement": "mean F-specific IFNγ ELISPOT response", "setting": "[8]; Day 42", "value": 8, "unit": "SFC/million PBMC"}, {"measurement": "animals with positive F-specific IFNγ ELISPOT response", "setting": "[8]; Day 42, ≥50 SFC/million increase and 4-fold rise from day −7", "value": "0 of the 4"}, {"measurement": "animals with positive F-specific IFNγ ELISPOT response", "setting": "[8]; Day 183", "value": "0 of 4"}, {"measurement": "mean F-specific IFNγ ELISPOT response", "setting": "[8]; Day 183", "value": 5, "unit": "SFC/million"}, {"measurement": "serum F-specific IgA titers versus seropositive animals vaccinated with PBS", "setting": "RSV sF [9]", "value": "significantly higher serum F-specific IgA titers"}, {"measurement": "animals per group with titers below the limit of detection", "setting": "RSV A2 [10]", "value": "1-2"}]}
